Test results from patent US20240269304A1, “BCL-XL INHIBITOR ANTIBODY-DRUG CONJUGATES AND METHODS OF USE THEREOF” (Novartis AG, priority 2020, published 2024).

System: EBC-1 xenografts
Assay: In vivo testing of EpCAM ADCs with paclitaxel, EBC-1 xenografts (Example 17)
Design: species or system female nude mice
Conditions: Paclitaxel Alone
Experimental: EBC-1 cells were cultured at 37° C. (atmosphere of 5% CO2) in DMEM (Gibco 11965-084) supplemented with 10% FBS (HI-FBS #134K19, Tet-free). Treatment with 0.25% Trypsin (Gibco 25200-056) was used for sub-culturing. To establish EBC-1 xenografts, cells were harvested and re-suspended in a 1:1 v/v mixture of phosphate buffered saline and Matrigel. A total of 5×10^6 cells in a volume of 150 μL were injected subcutaneously in the flanks of female nude mice (Charles River, USA). Tumor growth was monitored regularly post cell inoculation and animals were randomized into treatment groups (n=8) with a mean tumor volume of about 210 mm^3. EpCAM-DANAPA-L11C-P25 ADC, 3207-DANAPA-L11C-P25 isotype control ADC, and EpCAM-DANAPA CysMab control antibody were all dosed in combination with paclitaxel (LC Laboratories, Woburn, MA, Cat #: P-9600) as indicated in FIG. 13. The ADCs and CysMab antibody were administered intravenously (i.v.) once at the start of treatment at 30 mg/kg. Paclitaxel was administered i.v. once at 12.5 mg/kg, 24 h after the ADC or CysMab dose. All reagents were dosed at 10 mL/kg based on the individual mouse body weight. The ADCs and CysMab were formulated at 3 mg/mL in PBS on the day of treatment. Paclitaxel was reconstituted in 50% Ethanol+50% Cremophor EL (Kolliphor EL) at a concentration of 6 mg/mL, and then further diluted to 1.25 mg/mL with sterile saline prior to administration on the day of treatment.
Tumor volume data were analyzed for statistical difference relative to the EpCAM-DANAPA-L 11C-P25 ADC+ paclitaxel combination group. Unpaired two-tailed T-tests were used to make comparisons between groups.
As a measure of efficacy, %T/C values were calculated according to the formula: […]
Tumor regression was calculated according to the formula: […]
Δtumor volumes represent mean tumor volumes on the measurement day minus the mean tumor volume at the start of treatment. The Δtumor volume control value specified above refers to mean tumor volume changes in the vehicle group.

CC(=O)O[C@H]1C(=O)[C@@]2(C)[C@H]([C@H](OC(=O)c3ccccc3)[C@]3(O)C[C@H](OC(=O)[C@H](O)[C@@H](NC(=O)c4ccccc4)c4ccccc4)C(C)=C1C3(C)C)[C@]1(OC(C)=O)CO[C@@H]1C[C@@H]2O [Paclitaxel, paclitaxel]
% T/C (Day of Evaluation) (Day 10): 34% | ΔTumor volume (mm^3 ± SEM) (Day of Evaluation) (Day 10): 510.8 ± 158.5 mm^3 | Significance vs EpCAM-DANAPA-L11C-P25 ADC on Day 9 (Day of Evaluation) (Day 10, unpaired two-tailed T-test vs EpCAM-DANAPA-L11C-P25 ADC + paclitaxel group): P = 0.0014 | Complete Responders (Day of Evaluation) (Day 32, tumors regressed to 0 mm^3): 0/8
